# Measured values from patent US20230055321A1, “PYRIMIDOPYRROLE SPIRO COMPOUNDS AND DERIVATIVES THEREOF AS DNA-PK INHIBITORS” (MEDSHINE DISCOVERY INC., priority 2019, published 2023).
# Read-outs that look alike come from different tables or passages of the source.
# Tests used:
# [1] = target: Human-derived DNA-PK (Homo sapiens, UniProt P78527); experiment: DNA-dependent protein kinase (DNA-PK) inhibitory activity screening experiment (Eurofins, HTRF); type: biochemical; conditions: 50 nM GST-cMyc-p53, 30 minutes at room temperature
# Procedure: Experimental Method (Eurofins Pharma Discovery Service) DNA-PK (h) was incubated in assay buffer containing 50 nM GST-cMyc-p53 and Mg/ATP (according to the required concentration). The reaction was initiated by adding Mg/ATP mixture. After 30 minutes of incubation at room temperature, the reaction was stopped by the addition of stop solution containing EDTA. Finally, detection buffer (containing labeled anti-GST monoclonal antibody and europium-labeled anti-Ser15 antibody against phosphorylated p53) was added.
# [2] = Pharmacokinetic evaluation in mice, plasma, IV and PO; type: in vivo; conditions: Balb/c male mice; for Tlast / AUC(0-t) / C0 / clearance / half-life / Vd / Cmax / Tmax / AUC0-last / T1/2: plasma; for F: PO (2 mg/kg) vs IV (0.4 mg/kg); for Vd: read-out: Vdss
# Procedure: The test compound was mixed with 10% dimethyl sulfoxide/50% polyethylene glycol 200/40% water, vortexed and sonicated to prepare a nearly clear solution of 0.08 mg/mL, which was filtered with a microporous membrane for use. Balb/c male mice of 18 to 20 grams were selected, and the candidate compound solution was administered intravenously at a dose of 0.4 mg/kg. The test compound was mixed with 10% dimethyl sulfoxide/50% polyethylene glycol 200/40% water, vortexed and sonicated to prepare a nearly clear solution of 0.2 mg/mL, which was filtered with a microporous membrane for use. Balb/c male mice of 18 to 20 grams were selected, and the candidate compound solution was orally administered at a dose of 2 mg/kg. Whole blood was collected for a certain period of time, and plasma was prepared, then drug concentration was analyzed by LC-MS/MS method, and pharmacokinetic parameters were calculated by Phoenix WinNonlin software (Pharsight, USA).
# IV: intravenous administration; PO: oral administration; C0: instantaneous required concentration after intravenous injection; Cmax: maximum blood drug concentration after administration; Tmax: time required to reach the peak drug concentration after administration; T1/2: time required for the blood drug concentration to decrease by half; Vdss: apparent volume of distribution, refers to the proportional constant of the drug dose in vivo and the blood drug concentration when the drug reaches a dynamic equilibrium in vivo. Cl: clearance rate, refers to the apparent volume of distribution of the drug cleared in vivo per unit time; Tlast: time at the last detection point; AUC0-last: area under the drug-time curve, refers to the area surrounded by the blood drug concentration curve to the time axis; F: a measure of the speed and degree of drug absorption into the blood circulation, which is an important index for evaluating the degree of drug absorption.
# [3] = ATP: 10 μM, read-out: DNA-PK kinase inhibitory activity IC50
# [4] = mouse, PO (2 mg/kg), read-out: Tmax
compound,measurement,setting,value
Cc1cc2ncnn2cc1Nc1ncc2c(n1)C1(CCS(=O)(=O)CC1)C(=O)N2C [Compound 24],IC50,[1]; [3],84 nM
Cc1cc2ncnn2cc1Nc1ncc2c(n1)C1(CCC3(CC1)COC3)C(=O)N2C [Compound 13],IC50,[1]; [3],6 nM
"Cc1cc2ncnn2cc1Nc1ncc2c(n1)C1(CCC(O)CC1)C(=O)N2C (single isomer, unassigned) [Compound 22]",IC50,[1]; [3],11 nM
CC(=O)N1CCC2(CC1)C(=O)N(C)c1cnc(Nc3cn4ncnc4cc3C)nc12 [Compound 6],IC50,[1]; [3],6 nM
Cc1cc2ncnn2cc1Nc1ncc2c(n1)C1(CCC(F)(F)CC1)C(=O)N2C [Compound 9],Tlast,[2]; IV (0.4 mg/kg),2 h
same,F,[2],74.5%
same,Tlast,[2]; PO (2 mg/kg),4 h
same,AUC(0-t),"[2]; mouse, IV (0.4 mg/kg)",0.311 µM·h
same,C0,"[2]; mouse, IV (0.4 mg/kg)",871 nM
same,clearance,"[2]; mouse, IV (0.4 mg/kg)",53.4 mL/min/kg
same,half-life,"[2]; mouse, IV (0.4 mg/kg)",14.5 min
same,Vd,"[2]; mouse, IV (0.4 mg/kg)",1.07 L/kg
same,AUC(0-t),"[2]; mouse, PO (2 mg/kg)",1.16 µM·h
same,Cmax,"[2]; mouse, PO (2 mg/kg)",1080 nM
same,half-life,"[2]; mouse, PO (2 mg/kg)",28.7 min
same,Tmax,[2]; [4],30 min
same,IC50,[1]; [3],3 nM
Cc1cc2ncnn2cc1Nc1ncc2c(n1)C1(CCCC1)C(=O)N2C [Compound 17],IC50,[1]; [3],7 nM
"Cc1cc2ncnn2cc1Nc1ncc2c(n1)C1(CCC(C(F)(F)F)CC1)C(=O)N2C (single isomer, unassigned) [Compound 18]",IC50,[1]; [3],4 nM
"COC1(C)CCC2(CC1)C(=O)N(C)c1cnc(Nc3cn4ncnc4cc3C)nc12 (single isomer, unassigned) [Compound 27]",IC50,[1]; [3],10 nM
Cc1cc2ncnn2cc1Nc1ncc2c(n1)C1(CCC3(CCC3)CC1)C(=O)N2C [Compound 11],Tlast,[2]; IV (0.4 mg/kg),2 h
same,F,[2],73.7%
same,Tlast,[2]; PO (2 mg/kg),4 h
same,AUC(0-t),"[2]; mouse, IV (0.4 mg/kg)",0.349 µM·h
same,C0,"[2]; mouse, IV (0.4 mg/kg)",1250 nM
same,clearance,"[2]; mouse, IV (0.4 mg/kg)",47.2 mL/min/kg
same,half-life,"[2]; mouse, IV (0.4 mg/kg)",14.5 min
same,Vd,"[2]; mouse, IV (0.4 mg/kg)",0.855 L/kg
same,AUC(0-t),"[2]; mouse, PO (2 mg/kg)",1.29 µM·h
same,Cmax,"[2]; mouse, PO (2 mg/kg)",1220 nM
same,half-life,"[2]; mouse, PO (2 mg/kg)",29.6 min
same,Tmax,[2]; [4],30 min
same,IC50,[1]; [3],1 nM
Cc1cc2ncnn2cc1Nc1ncc2c(n1)C1(CCC3(CC3)CC1)C(=O)N2C [Compound 15],AUC0-last,[2]; IV (0.4 mg/kg),0.454 µM·h
same,T1/2,[2]; IV (0.4 mg/kg),15.2 min
same,Tlast,[2]; IV (0.4 mg/kg),2 h
same,F,[2],83%
same,AUC0-last,[2]; PO (2 mg/kg),1.882 µM·h
same,T1/2,[2]; PO (2 mg/kg),59.8 min
same,Tlast,[2]; PO (2 mg/kg),8 h
same,Tmax,[2]; PO (2 mg/kg),15 min
same,C0,"[2]; mouse, IV (0.4 mg/kg)",1230 nM
same,clearance,"[2]; mouse, IV (0.4 mg/kg)",37.6 mL/min/kg
same,Vd,"[2]; mouse, IV (0.4 mg/kg)",0.853 L/kg
same,Cmax,"[2]; mouse, PO (2 mg/kg)",1640 nM
same,IC50,[1]; [3],4 nM
"COC1(C)CCC2(CC1)C(=O)N(C)c1cnc(Nc3cn4ncnc4cc3C)nc12 (single isomer, unassigned) [Compound 28]",IC50,[1]; [3],3 nM
Cc1cc2ncnn2cc1Nc1ncc2c(n1)C1(CCOCC1)C(=O)N2C [Compound 1],IC50,"[1]; DNA-PK kinase inhibitory activity IC50, ATP: 10 μM",39 nM
Cc1cc2ncnn2cc1Nc1ncc2c(n1)C1(CCCCC1)C(=O)N2C [Compound 2],IC50,[1]; [3],6 nM
"COC1CCC2(CC1)C(=O)N(C)c1cnc(Nc3cn4ncnc4cc3C)nc12 (single isomer, unassigned) [Compound 4]",IC50,[1]; [3],4 nM
Cc1cc2ncnn2cc1Nc1ncc2c(n1)C1(CCN(CC(F)(F)F)CC1)C(=O)N2C [Compound 8],IC50,[1]; [3],4 nM
Cc1cc2ncnn2cc1Nc1ncc2c(n1)C1(CCCOCC1)C(=O)N2C (stereo not shown) [Compound 5],IC50,[1]; [3],16 nM
Cc1cc2ncnn2cc1Nc1ncc2c(n1)C1(CCC(=O)CC1)C(=O)N2C [Compound 20],IC50,[1]; [3],15 nM
"Cc1cc2ncnn2cc1Nc1ncc2c(n1)C1(CCC(C(F)(F)F)CC1)C(=O)N2C (single isomer, unassigned) [Compound 19]",IC50,[1]; [3],7 nM
Cc1cc2ncnn2cc1Nc1ncc2c(n1)C1(CCSCC1)C(=O)N2C [Compound 23],IC50,[1]; [3],8 nM
Cc1cc2ncnn2cc1Nc1ncc2c(n1)C1(CCN(C)CC1)C(=O)N2C [Compound 7],IC50,[1]; [3],25 nM
Cc1cc2ncnn2cc1Nc1ncc2c(n1)C1(CC1)C(=O)N2C [Compound 16],IC50,[1]; [3],39 nM
"COC1CCC2(CC1)C(=O)N(C)c1cnc(Nc3cn4ncnc4cc3C)nc12 (single isomer, unassigned) [Compound 3]",IC50,[1]; [3],10 nM
Cc1cc2ncnn2cc1Nc1ncc2c(n1)C1(CCC(C)(C)CC1)C(=O)N2C [Compound 12],AUC0-last,[2]; IV (0.4 mg/kg),0.358 µM·h
same,T1/2,[2]; IV (0.4 mg/kg),12.2 min
same,Tlast,[2]; IV (0.4 mg/kg),1 h
same,F,[2],114%
same,AUC0-last,[2]; PO (2 mg/kg),2.036 µM·h
same,Cmax,[2]; PO (2 mg/kg),1860 nM
same,T1/2,[2]; PO (2 mg/kg),29.5 min
same,Tlast,[2]; PO (2 mg/kg),4 h
same,Tmax,[2]; PO (2 mg/kg),30 min
same,C0,"[2]; mouse, IV (0.4 mg/kg)",1280 nM
same,clearance,"[2]; mouse, IV (0.4 mg/kg)",45.8 mL/min/kg
same,Vd,"[2]; mouse, IV (0.4 mg/kg)",0.794 L/kg
same,IC50,[1]; [3],1 nM
Cc1cc2ncnn2cc1Nc1ncc2c(n1)C1(CC=C(F)CC1)C(=O)N2C (stereo not shown) [Compound 10],IC50,[1]; [3],7 nM
CON=C1CCC2(CC1)C(=O)N(C)c1cnc(Nc3cn4ncnc4cc3C)nc12 (stereo not shown) [Compound 14],IC50,[1]; [3],11 nM
